Tests used:
[1] = test system: human peripheral blood; test: induction of IFNγ+ cells in human peripheral blood in vitro (ELISPOT); assay type: cell-based
Method: For induction of human primary IFNγ+ cells, heparinized peripheral blood samples were obtained by vein-puncture from healthy volunteers following an established protocol approved by the Institutional Review Board (IRB) of Cleveland Clinic. To mimic in vivo drug-exposure, human peripheral blood samples were directly treated with different agents without pre-separation of white blood cells from other blood components. Blood samples (0.1 ml/sample) were mixed with the agents, incubated at 37° C. for 4 hrs, diluted with 5 volumes of hypotonic solution (10 mM Tris, pH 7.4; 10 mM NaCl) to lyse RBC and centrifuged to pellet WBCs. The pellets were washed with hypotonic solution one time, re-suspended in RPMI 1640 medium (10% FCS) and used for ELISPOT assays (Human IFNγ ELISPOT Kit, R & D System) to quantify human IFNγα cells as outlined above.

[2] = biological target: T1, SHP-2 (Homo sapiens, UniProt Q06124); test: pERK1/2 levels in L5-treated Jurkat cells; assay type: cell-based; design: endogenous in cells; host or cells: Jurkat; conditions: not at lower doses (0.1 to 0.001 μg/ml)
T1 sequence (Q06124 1-593): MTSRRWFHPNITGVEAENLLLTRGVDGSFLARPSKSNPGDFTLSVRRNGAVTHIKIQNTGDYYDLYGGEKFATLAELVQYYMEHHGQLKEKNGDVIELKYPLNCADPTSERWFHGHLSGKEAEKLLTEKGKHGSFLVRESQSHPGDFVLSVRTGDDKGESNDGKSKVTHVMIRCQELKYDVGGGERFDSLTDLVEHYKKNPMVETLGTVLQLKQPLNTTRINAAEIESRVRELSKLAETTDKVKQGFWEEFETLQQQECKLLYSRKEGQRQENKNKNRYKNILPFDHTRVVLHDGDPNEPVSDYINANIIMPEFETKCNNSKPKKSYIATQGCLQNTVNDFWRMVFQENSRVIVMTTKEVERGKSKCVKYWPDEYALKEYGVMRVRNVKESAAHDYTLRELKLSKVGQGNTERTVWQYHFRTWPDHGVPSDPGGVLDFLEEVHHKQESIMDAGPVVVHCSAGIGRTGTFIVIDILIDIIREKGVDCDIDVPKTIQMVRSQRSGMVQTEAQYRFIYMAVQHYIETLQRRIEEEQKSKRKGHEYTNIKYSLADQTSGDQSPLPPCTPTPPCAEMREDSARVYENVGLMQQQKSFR
Method: (§1) Jurkat cells in culture medium (3×10^6 cells/ml, 1 ml/tube) were treated with agents for designated times at room temperature. After brief centrifuging in a microfuge (4,000 rpm, 2 min), the cell pellet was lysed on ice for 30 min in 1001 of cold lysis buffer (1% NP40, 50 mM Tris, pH 7.4, 150 mM NaCl, 20 mM NaF, 0.2 mM Na3VO4 and 1 mM Na3MO4) containing a cocktail of proteinase inhibitors (Sigma, 1 tablet/10 ml). The lysates were cleared by centrifuging (14,000 rpm, 10 min) in a microfuge at 4° C. to remove insoluble parts, mixed with equal volume of 2×SDS-PAGE sample buffer, boiled for 5 min and analyzed (˜3×10^5 cells/well) by SDS-PAGE/Western blotting. Relative intensities of phosphotyrosine bands were quantified through densitometry analysis.
To assess the effects of L5 on other phosphatases, pERK1/2 and pLck-pY505 in L5-treated Jurkat cells were quantified. SHP-2 is known to be a positive mediator of pERK1/2 whereas pLck-pY505 is dephosphorylated by PTPase CD45.

[3] = biological target: T2, intracellular SHP-1 (Homo sapiens, UniProt P29350); test: tyrosine phosphorylation of SHP-1 substrates in Jurkat cells (SDS-PAGE/Western blotting, densitometry); assay type: cell-based; conditions: for level capable of inhibiting intracellular SHP-1: Jurkat T cells
T2 construct: endogenous in cells; host or cells: Jurkat
Method: as §1
as §1, with “100 μl” for “1001”, “blotting as described previously (23, 24).” for “blotting.”
as §1, with “100 μl” for “1001”, “blotting as described previously (17, 18).” for “blotting.”

[4] = test system: B16 melanoma cells; test: B16 melanoma cell growth in culture (MTT assay); assay type: cell-based, mouse; conditions: doses up to 10 μg/ml, 5 days
Method: Data represent mean±SD of triplicate samples. […] Tumor volumes were recorded as indicated. C, Athymic nude mice bearing 4-day-established B16 tumors were subjected to differential treatments as in B. Tumor volumes were recorded as indicated.
L5, L6 and L6 analogs (Chembridge), mouse IFNγ ELISPOT Kit (R & D System) and antibody against pLck-pY394 or pERK1/2 (Cell Signaling) were purchased from commercial sources. Human Jurkat T cell line and murine B16 melanoma cell line (ATCC) and other cancer cell lines were maintained in […] culture medium supplemented with 10% fetal calf serum (FCS). The effects of chemical compounds on cancer cell growth in culture were quantified by MTT assays following our established procedures.

T2 sequence (P29350 whole entry): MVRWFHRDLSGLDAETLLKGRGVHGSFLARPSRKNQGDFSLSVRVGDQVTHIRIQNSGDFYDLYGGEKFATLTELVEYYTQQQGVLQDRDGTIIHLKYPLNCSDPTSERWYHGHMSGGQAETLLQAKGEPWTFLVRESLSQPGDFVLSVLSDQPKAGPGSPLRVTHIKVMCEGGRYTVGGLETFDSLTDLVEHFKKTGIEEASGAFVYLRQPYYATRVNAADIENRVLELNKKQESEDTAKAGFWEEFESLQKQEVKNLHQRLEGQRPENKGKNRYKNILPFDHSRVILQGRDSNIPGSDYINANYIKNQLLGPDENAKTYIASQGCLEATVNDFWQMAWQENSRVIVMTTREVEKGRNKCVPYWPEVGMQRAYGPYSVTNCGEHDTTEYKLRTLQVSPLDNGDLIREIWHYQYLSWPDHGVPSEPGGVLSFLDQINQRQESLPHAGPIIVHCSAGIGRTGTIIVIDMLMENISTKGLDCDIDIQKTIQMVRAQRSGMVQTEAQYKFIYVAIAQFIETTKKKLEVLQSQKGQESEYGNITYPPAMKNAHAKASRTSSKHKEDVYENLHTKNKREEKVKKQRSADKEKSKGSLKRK

O=C1C=CC(=O)C(c2cc(Cl)ccc2Cl)=C1 [L5]
maximal induction of IFNγ+ cells in human peripheral blood ([1]; 8 μg/ml): 20 fold | effectiveness relative to SSG in inducing IFNγ+ cells ([1]; maximal induction at a comparable dose, human peripheral blood): ~20 fold | dose reducing pERK1/2 levels [2]: 1 μg/ml | pLck-pY394 induction ([3]; 0.01 μg/ml, 10 min): 2-3 fold | pSlp76 level ([3]; 0.01, 0.1, 1 or 3 μg/ml): obviously increased | pZap70 level ([3]; 0.01, 0.1, 1 or 3 μg/ml): obviously increased | pLck-pY394 induction ([3]; 0.1, 1 or 3 μg/ml, 10 min): > 4 folds | dose effective in inducing pLck-pY394 (lowest / only effective dose) ([3]; 10 min treatment): 0.01 μg/ml | level capable of inhibiting intracellular SHP-1 [3]: 10 ng/mL | level capable of inhibiting intracellular SHP-1 ([3]; molar equivalent): ~40 nM | pLAT level ([3]; L5-treated Jurkat cells): induced | potency relative to SSG ([3]; by weight): approximately 1,000 fold | potency relative to SSG ([3]; in equal molar ratios): ~350 fold | pLck-pY394 induction versus untreated control ([3]; lead compounds, 10 min, densitometry, FIG. 2): ~10 fold | direct toxicity against B16 cells in culture [4]: little direct toxicity
